We go through 25 compounds from ChEMBL document CHEMBL1811826, “Structure-activity relationship and docking studies of thiazolidinedione-type compounds with monoamine oxidase B” (Bioorg Med Chem Lett, 2011).

As a reminder, the IC50 is the midpoint of a concentration-inhibition curve.

Active and inactive are the calls of the source. The calls are words filed in the database; no cut-off is given here.

Data set [1] deals with T1, Amine oxidase [flavin-containing] A (Homo sapiens, UniProt P21397).
T1 sequence (P21397 whole entry): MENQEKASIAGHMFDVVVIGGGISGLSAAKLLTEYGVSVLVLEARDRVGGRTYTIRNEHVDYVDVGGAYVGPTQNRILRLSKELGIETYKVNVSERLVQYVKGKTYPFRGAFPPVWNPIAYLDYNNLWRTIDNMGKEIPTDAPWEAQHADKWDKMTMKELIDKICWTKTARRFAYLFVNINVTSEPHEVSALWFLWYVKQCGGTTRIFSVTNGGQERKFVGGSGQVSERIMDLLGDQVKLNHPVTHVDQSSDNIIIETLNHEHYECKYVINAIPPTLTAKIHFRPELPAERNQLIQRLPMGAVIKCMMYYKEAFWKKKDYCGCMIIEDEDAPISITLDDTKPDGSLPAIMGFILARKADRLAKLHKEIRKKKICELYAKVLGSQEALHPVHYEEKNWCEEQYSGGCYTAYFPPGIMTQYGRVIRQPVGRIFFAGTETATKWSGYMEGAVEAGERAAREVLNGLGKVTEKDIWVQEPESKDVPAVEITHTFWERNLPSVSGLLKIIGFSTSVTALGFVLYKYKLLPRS
Kind of data set: Inhibition of human recombinant MAOA assessed as inhibition of kynuramine conversion to fluorescent metabolite 4-hydroxyquinoline by fluorimetry.

Data set [2] addresses T2, Amine oxidase [flavin-containing] B (Homo sapiens, UniProt P27338).
T2 sequence (P27338 whole entry): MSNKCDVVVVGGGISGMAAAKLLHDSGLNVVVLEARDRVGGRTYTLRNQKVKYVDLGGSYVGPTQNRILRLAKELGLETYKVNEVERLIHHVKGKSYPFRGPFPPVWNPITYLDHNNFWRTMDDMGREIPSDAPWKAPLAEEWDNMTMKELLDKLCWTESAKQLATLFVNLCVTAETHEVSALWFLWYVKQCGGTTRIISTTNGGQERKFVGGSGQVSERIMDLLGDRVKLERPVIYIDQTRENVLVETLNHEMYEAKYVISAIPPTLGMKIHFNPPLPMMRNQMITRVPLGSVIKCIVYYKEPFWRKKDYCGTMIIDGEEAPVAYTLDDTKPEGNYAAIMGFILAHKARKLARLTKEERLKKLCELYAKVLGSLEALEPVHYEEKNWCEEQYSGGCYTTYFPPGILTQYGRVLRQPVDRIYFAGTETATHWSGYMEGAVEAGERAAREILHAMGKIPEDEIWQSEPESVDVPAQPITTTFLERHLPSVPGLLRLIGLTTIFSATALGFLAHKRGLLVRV
Kind of data set: Inhibition of human recombinant MAOB by amplex red assay.

Data set [3] concerns Mus musculus. Kind of data set: Toxicity in C57BL/6 mouse assessed as striatal dopamine level at 10 mg/kg, sc measured after 7 days by HPLC method. Type of data set: organism-based. Further details: dose 10 mg/kg, route subcutaneous. To be noted: in vivo, 168 h.
The test system of data set [4] is Mus musculus. Put plainly: Neuroprotective activity in MPTP-stimulated C57BL/6 mouse assessed as increase in striatal dopamine content at 10 mg/kg, sc administered 1 hr before MPTP challenge measured after 7 days by HPLC method. Further details: dose 10 mg/kg. Type of data set: functional, organism-based.

In the case of `O=C(/C=C1/SC(=O)NC1=O)Nc1cccc(O)c1`, the IC50 in data set [1] came to 35.3 µM; in data set [2], 11 µM.

Regarding `O=C1NC(=O)/C(=C\c2cccc(Br)c2)S1`, the IC50 in data set [1] was found to be 67.3 µM; in data set [2] it was 6.07 µM.

With `CN1C(=O)/C(=C\c2ccc(Cl)cc2)SC1=S`, the IC50 in data set [1] came out at 399 µM; in data set [2], 36.5 µM.

In the case of `CN(C)c1ccc(/C=C2\SC(=O)N(CCN)C2=O)cc1`, in data set [1], the IC50 stood at 6.88 µM.

`O=C1NC(=O)/C(=C\c2ccncc2)S1`: the IC50 in data set [1] was found to be 13 µM.

With `COc1ccccc1/C=C1\SC(=O)N(CCN)C1=O`, the IC50 in data set [1] amounted to 29.8 µM.

For `N=C1NC(=O)C(Cc2ccccc2)S1` (stereo unspecified), in data set [2], the IC50 was 24.1 µM.

`CN1C(=O)/C(=C\c2ccccc2)SC1=S`: the IC50 in data set [1] was determined as 0.52 µM; in data set [2], 10.5 µM.

As to `CC(C)(C)c1cc(CC2SC(=O)N=C2O)cc(C(C)(C)C)c1O` (stereo unspecified), in the data set with Mus musculus [3], the Activity entry was “Non-toxic”. Moreover, the result in the data set on Mus musculus [4] was Active. Besides, the IC50 in data set [2] turned out to be 2.38 µM.

Regarding `O=C(O)C(Cc1ccc(O)cc1)N1C(=O)CSC1=S` (stereo unspecified), the IC50 in data set [2] came to 273 µM.

Regarding `O=C1NC(=O)/C(=C\c2cc(Br)c(O)c(Br)c2)S1`, the 50% inhibitory concentration (IC50) in data set [1] was 39.9 µM; in data set [2] it was 1.02 µM.

For the compound `CCCN1C(=O)/C(=C\c2ccncc2)SC1=S`, the IC50 in data set [1] stood at 10.6 µM; in data set [2], 0.8 µM.

Turning to `COc1cc(/C=C2\SC(=S)NC2=O)ccc1O`, the figures for the IC50 in data set [1] and in data set [2] were 28.6 µM and 2.49 µM, respectively.

Regarding `O=C(/C=C1/SC(=O)NC1=O)Nc1ccccc1`, the IC50 turned out to be 35.3 µM in data set [1] and 22 µM in data set [2].

Consider `O=C1NC(=O)C(Cc2ccc(O)cc2)S1` (stereo unspecified) [GLITAZONE], for which the IC50 in data set [1] is 194 µM; in data set [2] it was 225 µM.

On to `Cc1cc(CC2SC(=O)NC2=O)cc(C)c1O` (stereo unspecified), for which the IC50 in data set [1] is 26.2 µM; in data set [2], 16.1 µM.

Take `N#CCCN1C(=O)S/C(=C\c2ccccc2)C1=O`: the IC50 in data set [1] turned out to be 3.49 µM.

As to `Cc1cc(C)cc(CC2SC(=O)NC2=O)c1` (stereo unspecified), the IC50 in data set [1] was 50.5 µM.

Take `O=C1NC(=O)/C(=C/c2ccc3nccnc3c2)S1`: the IC50 in data set [1] is 166 µM.

Consider `O=C1NC(=O)/C(=N\c2ccc(C(=O)O)cc2)S1`, for which the IC50 in data set [1] worked out at 37.3 µM; in data set [2] it was 56 µM.

On to `O=C(O)CCN1C(=O)/C(=C\c2ccccc2)SC1=S`, for which the IC50 in data set [1] turned out to be 70.5 µM; in data set [2] it was 604 µM.

For the compound `COc1cc(/C=C2/SC(=S)NC2=O)c(OC)cc1O`, the IC50 is 380 µM in data set [1] and 31.6 µM in data set [2].

With `O=C1NC(=S)S/C1=C/c1ccncc1`, the IC50 in data set [1] was determined as 21.8 µM.

With `CC(=O)c1ccc(CC2SC(=N)NC2=O)cc1` (stereo unspecified), the IC50 was 252 µM in data set [1] and 309 µM in data set [2].

Consider `CCOc1ccc(/C=C2\SC(=O)N(CCN)C2=O)cc1`, for which the IC50 in data set [1] amounted to 1.04 µM.
